In the supplement of paper PMC11061612:

Legend:
Assay in all cases: Bliss excess, mean over the matrix (fraction); higher = more synergy
[1] = test system: EW-16 (Ewing's Sarcoma)
Outline: (§1)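 Cell lines in DMEM/F12 or RPMI with 10% FBS were plated in 1536-well plates, held 24 hours at 37°C, 5% CO2, then given two-drug dose matrices for 72 hours (DMSO typically 0.2%). Viability was read by CellTiter-Glo 2.0 luminescence and scaled as inhibition from 0 (vehicle wells) to 1 (blank wells). Combination Emax is the second-highest inhibition in the matrix; Bliss excess is observed combination effect minus expected EA + EB − EA·EB, EA and EB being single-agent effects.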

[2] = test system: SK-HEP-1 (Hepatocellular Carcinoma)
Outline: as §1

[3] = test system: CGTH-W-1 (Thyroid Gland Carcinoma)
Outline: as §1

[4] = test system: NB13 (Neuroblastoma)
Outline: as §1

[5] = test system: NCI-H1703 (Squamous Cell Lung Carcinoma)
Outline: as §1

[6] = test system: GCT (Other Solid Carcinomas)
Outline: as §1

[7] = test system: EB2 (Burkitt's Lymphoma)
Outline: as §1

[8] = test system: 5637 (Bladder Carcinoma)
Outline: as §1

[9] = test system: KYSE-140 (Esophageal Squamous Cell Carcinoma)
Outline: as §1

[10] = test system: JVM-2 (B-Cell Non-Hodgkin's Lymphoma)
Outline: as §1

[11] = test system: DU-4475 (Breast Carcinoma)
Outline: as §1

[12] = test system: LU-165 (Small Cell Lung Carcinoma)
Outline: as §1

[13] = test system: HT55 (Colorectal Carcinoma)
Outline: as §1

[14] = test system: NCI-H716 (Colorectal Carcinoma)
Outline: as §1

[15] = test system: COLO-792 (Melanoma)
Outline: as §1

[16] = test system: huH-1 (Hepatocellular Carcinoma)
Outline: as §1

[17] = test system: AU565 (Breast Carcinoma)
Outline: as §1

[18] = test system: IM-9 (Non-Cancerous)
Outline: as §1

[19] = test system: MDA-MB-436 (Breast Carcinoma)
Outline: as §1

[20] = test system: A101D (Melanoma)
Outline: as §1

| SMILES | Bliss excess [1] | Bliss excess [2] | Bliss excess [3] | Bliss excess [4] | Bliss excess [5] | Bliss excess [6] | Bliss excess [7] | Bliss excess [8] | Bliss excess [9] | Bliss excess [10] | Bliss excess [11] | Bliss excess [12] | Bliss excess [13] | Bliss excess [14] | Bliss excess [15] | Bliss excess [16] | Bliss excess [17] | Bliss excess [18] | Bliss excess [19] | Bliss excess [20] |
| --- | --- | --- | --- | --- | --- | --- | --- | --- | --- | --- | --- | --- | --- | --- | --- | --- | --- | --- | --- | --- |
| COc1cccc(OCCCN)c1-c1cc(Nc2cnc(C#N)cn2)n[nH]1 [Prexasertib] + CN(C)CCCOc1ccc(-c2ccc3ncc4c(c3c2)n(C2CCOCC2)c(=O)n4C)cn1 [AZD0156] (first compound max 1 µM, 7x7, partner max 1 µM) | 0.023 | -0.0206 | -0.0614 | -0.0268 | -0.0295 | -0.0084 | -0.0088 | -0.0174 | -0.0129 | -0.0104 | -0.0171 | -0.0723 | 0.0444 | 0.025 | -0.0447 | -0.0422 | -0.073 | -0.0022 | -0.0428 | 0.0419 |
| COc1cccc(OCCCN)c1-c1cc(Nc2cnc(C#N)cn2)n[nH]1 [Prexasertib] + C[C@@H]1COCCN1C2=NC(=NC(=C2)C3(CC3)[S@](=N)(=O)C)C4=C5C=CNC5=NC=C4 [AZD6738] (first compound max 1 µM, 7x7, partner max 10 µM) | 0.0053 | 0.0447 | -0.0348 | -0.0603 | 0.0047 | -0.0001 | -0.0478 | -0.0304 | -0.0191 | -0.0625 | -0.022 | -0.0402 | 0.0367 | -0.0432 | -0.0376 | -0.0716 | -0.0612 | -0.003 | 0.0051 | -0.0066 |
| COc1cccc(OCCCN)c1-c1cc(Nc2cnc(C#N)cn2)n[nH]1 [Prexasertib] + Cc1cc2ncnn2cc1Nc1ncc2c(n1)n(C1CCOCC1)c(=O)n2C [AZD7648] (first compound max 1 µM, 7x7, partner max 10 µM) | 0.0156 | -0.0416 | -0.0455 | -0.023 | -0.0192 | 0.0365 | -0.0306 | -0.0423 | -0.0066 | 0.0171 | 0.0256 | -0.0422 | -0.0102 | 0.0577 | 0.0103 | -0.0226 | 0.0086 | -0.014 | -0.0552 | 0.0232 |
| COc1cccc(OCCCN)c1-c1cc(Nc2cnc(C#N)cn2)n[nH]1 [Prexasertib] + O=C(c1cc(Cc2n[nH]c(=O)c3ccccc23)ccc1F)N1CCN(C(=O)C2CC2)CC1 [Olaparib] (first compound max 1 µM, 7x7, partner max 10 µM) | 0.0036 | -0.0127 | -0.0511 | -0.0317 | -0.0537 | 0.0068 | -0.0373 | -0.0729 | -0.152 | 0.0213 | -0.0174 | -0.128 | -0.0102 | -0.0673 | 0.0173 | 0.0434 | -0.0097 | 0.0046 | 0.0035 | -0.0549 |
| CCc1c2c(nc3ccc(O)cc13)-c1cc3c(c(=O)n1C2)COC(=O)[C@]3(O)CC [SN-38] + CN(C)CCCOc1ccc(-c2ccc3ncc4c(c3c2)n(C2CCOCC2)c(=O)n4C)cn1 [AZD0156] (first compound max 0.3 µM, 7x7, partner max 1 µM) | 0.0385 | 0.0105 | -0.0056 | 0.0313 | 0.0117 | 0.0183 | 0.0238 | 0.0507 | 0.0176 | 0.0156 | 0.0129 | -0.028 | 0.0776 | 0.0129 | -0.011 | 0.0502 | -0.0621 | 0.0891 | 0.0033 | 0.0006 |
| Cn1cnc2c(F)c(Nc3ccc(Br)cc3Cl)c(C(=O)NOCCO)cc21 [Selumetinib] + C=CCn1c(=O)c2cnc(Nc3ccc(N4CCN(C)CC4)cc3)nc2n1-c1cccc(C(C)(C)O)n1 [AZD1775] (first compound max 10 µM, partner max 1 µM) | -0.0214 | 0.0127 | -0.0427 | -0.0591 | -0.0612 | -0.0074 | -0.071 | -0.0306 | -0.0514 | -0.071 | -0.0196 | -0.0589 | -0.0422 | -0.0992 | 0.0092 | -0.116 | -0.0507 | -0.045 | -0.0002 | -0.087 |
